Assay results taken from patent US10196363B2, “Dihydropyrimidin-2-one compounds and medical use thereof” (JAPAN TOBACCO INC., priority 2014, dated 2019).
pEC50: −log10 of the molar value. Like-named read-outs stand apart in the source and are kept apart here.

Legend:
human RORγ = biological target: T1, human RORγ (Homo sapiens, UniProt P51449); assay: In vitro assay of inhibitory effect against RORγ transcriptional activity (GAL4-hRORγ LBD luciferase reporter gene assay in CHO cells); type: cell-based; settings: for hRORγ luciferase activity, %-of-control: value in parentheses beside the > EC50 bound, vehicle-control 0.2% DMSO alone = 100%
T1 construct: human RORγ, from Ser253 to Lys518; expressed in transfected cells; host or cells: CHO cells (Chinese hamster ovary), transient co-transfection with pG5-Luc
T1 sequence (P51449 253-518): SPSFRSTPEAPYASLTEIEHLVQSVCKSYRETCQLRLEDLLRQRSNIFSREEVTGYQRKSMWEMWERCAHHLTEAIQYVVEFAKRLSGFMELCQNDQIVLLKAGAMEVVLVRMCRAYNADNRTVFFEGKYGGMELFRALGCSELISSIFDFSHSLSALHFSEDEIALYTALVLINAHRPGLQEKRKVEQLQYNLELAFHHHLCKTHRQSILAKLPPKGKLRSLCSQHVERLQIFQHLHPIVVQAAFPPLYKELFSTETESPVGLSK
Summary of the method: (§1)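 Luciferase signal, expressed relative to 0.2% DMSO vehicle as 100%, was the read-out after a 2-day compound exposure of CHO cells co-expressing a GAL4-RORγ LBD fusion and a GAL4-responsive reporter. EC50 values came from curve fitting, omitting points showing cytotoxicity.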

mouse RORγ = biological target: T2, mouse RORγ (Mus musculus, UniProt P51450); assay: In vitro assay of inhibitory effect against RORγ transcriptional activity (GAL4-mRORγ LBD luciferase reporter gene assay in CHO cells); type: cell-based; settings: for mRORγ luciferase activity, %-of-control: value in parentheses beside the > EC50 bound, vehicle-control 0.2% DMSO alone = 100%
T2 construct: mouse RORγ, from Ile251 to Lys516; expressed in transfected cells; host or cells: CHO cells (Chinese hamster ovary), transient co-transfection with pG5-Luc
T2 sequence (P51450 251-516): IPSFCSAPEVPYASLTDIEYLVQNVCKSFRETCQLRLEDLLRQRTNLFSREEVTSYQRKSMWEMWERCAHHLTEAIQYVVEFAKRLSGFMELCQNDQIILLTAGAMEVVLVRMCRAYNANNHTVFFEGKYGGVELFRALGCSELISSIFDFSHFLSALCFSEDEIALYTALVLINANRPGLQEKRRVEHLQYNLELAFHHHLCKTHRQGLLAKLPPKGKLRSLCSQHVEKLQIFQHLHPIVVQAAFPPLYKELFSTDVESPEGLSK
Summary of the method: as §1

[1] = GAL4-hRORγ LBD / pG5-Luc in CHO cells, 2 days incubation
[2] = GAL4-mRORγ LBD / pG5-Luc in CHO cells, 2 days incubation
[3] = GAL4-hRORγ LBD luciferase reporter, CHO cells, read-out: LUC EC50 hRORγ
[4] = GAL4-mRORγ LBD luciferase reporter, CHO cells, read-out: LUC EC50 mRORγ

SMILES | pEC50 (human RORγ; [1]) | pEC50 (mouse RORγ; [2]) | hRORγ luciferase activity, %-of-control (human RORγ) | mRORγ luciferase activity, %-of-control (mouse RORγ) | pEC50 (human RORγ; [3]) | pEC50 (mouse RORγ; [4])
CC(C)C1=CN(CCC(=O)O)C(=O)N[C@]1(C)c1ccc(CCc2ccccc2)c(Cl)c1 [Example 143] | < 5.10 | < 5.10 | (90%) | (100%) |  | 
CC(C)C1=CN(CCC(=O)O)C(=O)N[C@@]1(C)c1ccc(CCc2ccccc2)c(Cl)c1 [Example 144] | < 6.29 | 7.43 | (60%) |  |  | 
CC(C)C1=CN(CCC(=O)O)C(=O)N[C@]1(C)c1ccc(C2=CCCC2)c(Cl)c1 [Example 148] | < 5.10 | < 5.10 | (57%) | (69%) |  | 
CC(C)C1=CN(CCC(=O)O)C(=O)N[C@@]1(C)c1ccc(C2=CCCC2)c(Cl)c1 [Example 149] | 5.99 | 6.61 |  |  |  | 
CC(C)CCOc1ccc([C@]2(C)NC(=O)N(CCC(=O)O)C=C2C(C)C)cc1Cl [Example 150] | 7.68 | 7.92 |  |  |  | 
CC(C)C1=CN(CCC(=O)O)C(=O)N[C@]1(C)c1ccc(C2CCC2)c(Cl)c1 [Example 152] | < 4.70 | < 4.70 | (56%) | (57%) |  | 
CC(C)C1=CN(CCC(=O)O)C(=O)N[C@@]1(C)c1ccc(C2CCC2)c(Cl)c1 [Example 153] | 6.49 | 6.94 |  |  |  | 
CC(C)C1=CN(CCC(=O)O)C(=O)N[C@]1(C)c1ccc(C2CCCC2)c(Cl)c1 [Example 155] | < 5.10 | < 5.10 | (83%) | (81%) |  | 
CC(C)C1=CN(CCC(=O)O)C(=O)N[C@@]1(C)c1ccc(C2CCCC2)c(Cl)c1 [Example 156] | 6.28 | 6.78 |  |  |  | 
CC(C)OCc1ccc([C@]2(C)NC(=O)N(CCC(=O)O)C=C2C(C)C)cc1Cl [Example 157] | 6.30 | 6.59 |  |  |  | 
CC(C)C1=CN(c2ccc(C(=O)O)cc2)C(=O)N[C@@]1(C)c1ccc(CCC(C)(C)C)c(Cl)c1 [Example 159, 4-{(S)-4-[3-chloro-4-(3,3-dimethyl-butyl)-phenyl]-5-isopropyl-4-methyl-2-oxo-3,4-dihydro-2H-pyrimidin-1-yl}-benzoic Acid] | 7.68 | 7.64 |  |  |  | 
CC(C)C1=CN(CCC(=O)O)C(=O)N[C@@]1(C)c1cc(F)c(OCc2ccccc2)c(Cl)c1 [Example 161] | 6.81 | 7.33 |  |  |  | 
CC(C)C1=CN(CCC(=O)O)C(=O)N[C@@]1(C)c1cc(F)c(OCC(C)(C)C)c(Cl)c1 [Example 164] | 7.74 | 7.96 |  |  |  | 
CC(C)C1=CN(CCC(=O)O)C(=O)N[C@@]1(C)c1cc(F)c(OCCC(C)(C)C)c(Cl)c1 [Example 165] | 7.57 | 7.77 |  |  |  | 
CC(C)C1=CN(CCC(=O)O)C(=O)N[C@@]1(C)c1ccc(C2CC3(CCC3)C2)c(Cl)c1 [Example 173] | 7.66 | 7.96 |  |  |  | 
CCCC(CCC)Cc1ccc([C@]2(C)NC(=O)N(CCC(=O)O)C=C2C(C)C)cc1Cl [Example 178] | 7.72 | 7.68 |  |  |  | 
CC(C)COc1ccc([C@]2(C)NC(=O)N(CCC(=O)O)C=C2C(C)C)cc1Cl [Example 183] | 6.93 | 7.11 |  |  |  | 
CC(C)C1=CN(CCC(=O)O)C(=O)N[C@@]1(C)c1cc(F)c(/C=C/C(C)(C)C)c(Cl)c1 [Example 189] | 7.52 | 7.66 |  |  |  | 
CC(C)CCOc1c(F)cc([C@]2(C)NC(=O)N(c3ccc(C(=O)O)cc3)C=C2C(C)C)cc1Cl [Example 192] |  |  |  |  | 7.77 | 7.96
CC(C)C1=CN(c2ccc(C(=O)O)cc2)C(=O)N[C@@]1(C)c1cc(F)c(OCC(C)(C)C)c(Cl)c1 [Example 193] |  |  |  |  | 7.74 | 7.72
CC(C)COc1c(F)cc([C@]2(C)NC(=O)N(CCC(=O)O)C=C2C(C)C)cc1Cl [Example 194] |  |  |  |  | 7.24 | 7.55
CC(C)CCOc1c(F)cc([C@]2(C)NC(=O)N(CCC(=O)O)C=C2C(C)C)cc1Cl [Example 195] |  |  |  |  | 7.74 | 7.92
CC(C)C1=CN(c2ccc(C(=O)O)cc2)C(=O)N[C@@]1(C)c1ccc(CCC(C)(C)C(F)(F)F)c(Cl)c1 [Example 196] |  |  |  |  | 8.05 | 7.77

Second part, the molecule after the results:

pEC50 (human RORγ; [1]) | pEC50 (mouse RORγ; [2]) | hRORγ luciferase activity, %-of-control (human RORγ) | mRORγ luciferase activity, %-of-control (mouse RORγ) | pEC50 (human RORγ; [3]) | pEC50 (mouse RORγ; [4]) | SMILES
6.68 | 6.86 |  |  |  |  | CC(C)C1=CN(CCC(=O)O)C(=O)N[C@@]1(C)c1ccc(OCCC(F)(F)F)c(Cl)c1 [Example 140]
< 5.10 | < 5.10 | (57%) | (52%) |  |  | CC(C)C1=CN(CCC(=O)O)C(=O)N[C@]1(C)c1ccc(CCC2CC(C)(C)C2)c(Cl)c1 [Example 141]
< 6.29 | 7.31 | (102%) |  |  |  | CC(C)C1=CN(CCC(=O)O)C(=O)N[C@@]1(C)c1ccc(CCC2CC(C)(C)C2)c(Cl)c1 [Example 142]
5.69 | 5.40 |  |  |  |  | CC(C)(C)CCc1ccc([C@@]2(C)NC(=O)N(CCCC(=O)O)C=C2C2CC(F)(F)C2)cc1Cl [Example 145]
7.85 | 7.92 |  |  |  |  | CC(C)(C)CCc1ccc([C@]2(C)NC(=O)N(CCCC(=O)O)C=C2C2CC(F)(F)C2)cc1Cl [Example 146]
7.23 | 7.52 |  |  |  |  | CC(C)C1=CN(CCC(=O)O)C(=O)N[C@@]1(C)c1ccc(COC(C)(C)C)c(Cl)c1 [Example 147]
8.00 | 7.85 |  |  |  |  | CC(C)C1=CN(C[C@H]2C[C@H](C(=O)O)C2)C(=O)N[C@@]1(C)c1ccc(CCC(C)(C)C)c(Cl)c1 [Example 154, 3-{(S)-4-[3-chloro-4-(3,3-dimethyl-butyl)-phenyl]-5-isopropyl-4-methyl-2-oxo-3,4-dihydro-2H-pyrimidin-1-ylmethyl}-cyclobutanecarboxylic acid]
7.52 | 7.64 |  |  |  |  | CC(C)C1=CN(CCC(=O)O)C(=O)N[C@@]1(C)c1ccc(CC[Si](C)(C)C)c(Cl)c1 [Example 158]
6.76 | 6.56 |  |  |  |  | CC(C)C1=CN([C@H]2CC(=O)N(CC(=O)O)C2)C(=O)N[C@@]1(C)c1ccc(CCC(C)(C)C)c(Cl)c1 [Example 162]
6.84 | 6.57 |  |  |  |  | CC(C)C1=CN([C@@H]2CC(=O)N(CC(=O)O)C2)C(=O)N[C@@]1(C)c1ccc(CCC(C)(C)C)c(Cl)c1 [Example 163]
8.05 | 7.92 |  |  |  |  | CC(C)C1=CN(CCC(=O)O)C(=O)N[C@@]1(C)c1cc(F)c(CCC(C)(C)C)c(Cl)c1 [Example 175]
7.66 | 7.89 |  |  |  |  | CC(C)C1=CN(CCC(=O)O)C(=O)N[C@@]1(C)c1ccc(CCC(C)(C)C)c(F)c1 [Example 176]
7.77 | 7.77 |  |  |  |  | CCC(CC)Cc1ccc([C@]2(C)NC(=O)N(CCC(=O)O)C=C2C(C)C)cc1Cl [Example 177]
7.19 | 7.57 |  |  |  |  | CC(C)C1=CN(CCC(=O)O)C(=O)N[C@@]1(C)c1ccc(C(C)CC(C)(C)C)c(Cl)c1 (stereo partly drawn) [Example 179]
8.05 | 7.85 |  |  |  |  | CC(C)C1=CN(CCC(=O)O)C(=O)N[C@@]1(C)c1ccc(CCC(C)(C)C(F)(F)F)c(Cl)c1 [Example 185]
7.04 | 6.94 |  |  |  |  | CC(C)C1=CN(C23CC(C(=O)O)(C2)C3)C(=O)N[C@@]1(C)c1ccc(CCC(C)(C)C)c(Cl)c1 [Example 186]
